How the values were obtained:
Vibrio parahaemolyticus = test: Antibacterial activity against Vibrio parahaemolyticus by broth microdilution methods in presence of sulfamethoxazole
Vibrio alginolyticus = test: Antibacterial activity against Vibrio alginolyticus by broth microdilution methods in presence of sulfamethoxazole
Vibrio fluvialis = test: Antibacterial activity against Vibrio fluvialis by broth microdilution method in presence of sulfamethoxazole
Vibrio vulnificus = test: Antibacterial activity against Vibrio vulnificus by broth microdilution method in presence of sulfamethoxazole
Vibrio sp. = test: Antibacterial activity against Vibrio sp. by broth microdilution method in presence of sulfamethoxazole
Campylobacter jejuni = test: Antibacterial activity against Campylobacter jejuni by broth microdilution method in presence of sulfamethoxazole
Campylobacter coli = test: Antibacterial activity against Campylobacter coli by broth microdilution method in presence of sulfamethoxazole
Escherichia coli = test: Antibacterial activity against Escherichia coli by broth microdilution methods in presence of sulfamethoxazolee
Salmonella typhimurium = test: Antibacterial activity against Salmonella enterica serovar Typhimurium by broth microdilution method in presence of sulfamethoxazolee
Salmonella enteritidis = test: Antibacterial activity against Salmonella enterica serovar Enteritidis by broth microdilution method in presence of sulfamethoxazolee
Salmonella typhi = test: Antibacterial activity against Salmonella enterica serovar Typhi by broth microdilution method in presence of sulfamethoxazolee
Salmonella paratyphi = test: Antibacterial activity against Salmonella enterica serovar Paratyphi by broth microdilution method in presence of sulfamethoxazolee
[1] = Antibacterial activity against Salmonella enterica serovar Newport by broth microdilution method in presence of sulfamethoxazole
[2] = Antibacterial activity against Salmonella enterica serovar Virchow by broth microdilution method in presence of sulfamethoxazole
[3] = Antibacterial activity against Salmonella enterica serovar Heidelberg by broth microdilution method in presence of sulfamethoxazole
Shigella sonnei = test: Antibacterial activity against Shigella sonnei by broth microdilution method in presence of sulfamethoxazole
Shigella flexneri = test: Antibacterial activity against Shigella flexneri by broth microdilution method in presence of sulfamethoxazole
Shigella boydii = test: Antibacterial activity against Shigella boydii by broth microdilution methods in presence of sulfamethoxazole
Shigella dysenteriae = test: Antibacterial activity against Shigella dysenteriae by broth microdilution methods in presence of sulfamethoxazole
Yersinia enterocolitica = test: Antibacterial activity against Yersinia enterocolitica by broth microdilution methods in presence of sulfamethoxazole
[4] = test system: Yersinia pseudotuberculosis; test: Antibacterial activity against Yersinia pseudotuberculosis by broth microdilution methods in presence of sulfamethoxazole
Aeromonas hydrophila = test: Antibacterial activity against Aeromonas hydrophila by broth microdilution methods in presence of sulfamethoxazole
Aeromonas caviae = test: Antibacterial activity against Aeromonas caviae by broth microdilution methods in presence of sulfamethoxazole
Aeromonas sobria = test: Antibacterial activity against Aeromonas sobria by broth microdilution methods in presence of sulfamethoxazole
Aeromonas veronii = test: Antibacterial activity against Aeromonas veronii by broth microdilution methods in presence of sulfamethoxazole
Plesiomonas shigelloides = test: Antibacterial activity against Plesiomonas shigelloides by broth microdilution method in presence of sulfamethoxazole
Vibrio cholerae = test: microbe, parasite or virus in culture

COc1cc(Cc2cnc(N)nc2N)cc(OC)c1OC [TRIMETHOPRIM]
8 µg/mL: MIC90 (Campylobacter jejuni) | MIC90 (Campylobacter coli) | MIC90 (Aeromonas hydrophila) | MIC90 (Aeromonas caviae) | MIC90 (Aeromonas sobria) | MIC90 (Aeromonas veronii)
≤ 0.5 µg/mL: MIC50 (Vibrio parahaemolyticus) | MIC90 (Vibrio parahaemolyticus) | MIC50 (Vibrio alginolyticus) | MIC90 (Vibrio alginolyticus) | MIC50 (Vibrio fluvialis) | MIC90 (Vibrio fluvialis) | MIC50 (Vibrio vulnificus) | MIC90 (Vibrio vulnificus) | MIC50 (Vibrio sp.) | MIC90 (Vibrio sp.) | MIC50 (Escherichia coli) | MIC50 (Salmonella typhimurium) | MIC90 (Salmonella typhimurium) | MIC50 (Salmonella enteritidis) | MIC90 (Salmonella enteritidis) | MIC50 (Salmonella typhi) | MIC90 (Salmonella typhi) | MIC50 (Salmonella paratyphi) | MIC90 (Salmonella paratyphi) | MIC50 [1] | MIC90 [1] | MIC50 [2] | MIC90 [2] | MIC50 [3] | MIC90 [3] | MIC50 (Yersinia enterocolitica) | MIC50 [4] | MIC50 (Aeromonas hydrophila) | MIC50 (Aeromonas caviae) | MIC50 (Aeromonas sobria) | MIC50 (Aeromonas veronii) | MIC (Plesiomonas shigelloides) | MIC50 (Plesiomonas shigelloides) | MIC50 (Vibrio cholerae) | MIC90 (Vibrio cholerae)
> 64 µg/mL: MIC90 (Escherichia coli) | MIC50 (Shigella sonnei) | MIC90 (Shigella sonnei) | MIC50 (Shigella flexneri) | MIC90 (Shigella flexneri) | MIC50 (Shigella boydii) | MIC90 (Shigella boydii) | MIC50 (Shigella dysenteriae) | MIC90 (Shigella dysenteriae)
2 µg/mL: MIC50 (Campylobacter jejuni) | MIC50 (Campylobacter coli)
